Measured values as given in US20120142723A1, “ACE2 ACTIVATOR COMPOUNDS AND METHODS OF USE THEREOF” (University of Florida Research Foundation, Inc., priority 2006, published 2012).
Entries after “also recorded” stand apart in the source; their conditions may differ. Where two headings read alike, the source gives them in different places.

How the values were obtained:
[1] = target: T1, human recombinant ACE2 (Homo sapiens, UniProt Q9BYF1); test: ACE2 activity assay with fluorogenic peptide VI; format: biochemical
T1 construct: purchased R&D Systems, Minneapolis, Minn; 933-ZN-10
Protocol: (§1) Activity of ACE and ACE2 was measured with a Spectra Max Gemini EM Florescence Reader (Molecular Devices). The enzyme removes the c-terminal dinitrophenyl moiety that quenches the inherent fluorescence of its 7-methoxycoumain group, resulting in an increase in fluorescence in the presence of enzyme activity. Fluorescence was measured with excitation and emission spectra of 328 nm and 392 nm, respectively. Reaction mixtures were prepared in 100 μl volumes and different concentrations of compound were tested against 10 μM substrate. 10 nM enzyme in 100 mM NaCl, 75 mM Iris, 0.5 μM ZnCl2, at pH 7.4. Samples were read every 15-20 seconds for at least 30 minutes immediately after the addition of fluorogenic peptide substrate at 37° C. Assays, including controls, were performed in the presence of 1% dimethyl sulfoxide (DMSO). Although higher concentrations of NaCl increase the activity of ACE2 and ACE (Vickers et al. 2002), a low concentration of salt (100 mM NaCl) was used in the assays to allow for enhancement of enzymatic activity to be detectable. That is, using 1 M NaCl which gives a maximal enhancing effect from the Cl ions might not allow the compounds to further enhance the activity of the enzyme. The lower salt concentration should give the compounds available room for activation.
Controls in the presence and absence of DMSO and without compound were carried out to evaluate the effect of DMSO on the activity of ACE and ACE2. Assays with no DMSO, 1% DMSO, and 2% DMSO were performed in identical conditions (i.e, pH, temperature, salt concentration, reaction mix volume and so on) to those of the experimental assays.
The experimental assays were corrected at each concentration since higher or lower concentrations of compounds affected the background signal in a concentration dependent manner.
Human recombinant ACE and ACE2 were obtained from R&D systems, Minneapolis, Minn., along with their respective fluorogenic substrates (ACE, catalog ID: 929-ZN-10; ACE2, 933-ZN-10; ACE substrate, fluorogenic peptide V, Mca RPPGFSAFK(Dnp)-OH, catalog ID: ES005; ACE2 substrate, fluorogenic peptide VI, Mca-YVADAPK(Dnp)-OH, ES007). Enzymatic activity was measured with a Spectra Max Gemini EM Fluorescence Reader (Molecular Devices) (Huentelman et al., Regul. Pept. 122:61-67 (2004)). Compounds were tested against 50 μM substrate. All assays were performed at least in triplicate in a reaction mixture containing 10 nM enzyme, 1 M NaCl, 75 mM Tris-HCl, 1% DMSO and 0.5 μM ZnCl2, at pH 7.4. Samples were read every 15-30 seconds for at least 30 minutes immediately after the addition of fluorogenic peptide substrates at 37° C. […] Enzyme activity was corrected for background.

[2] = target: T2, Human recombinant ACE (Homo sapiens, UniProt P12821); test: ACE activity assay with fluorogenic peptide V; format: biochemical
T2 construct: purchased R&D Systems, Minneapolis, Minn; 929-ZN-10
Protocol: as §1
Controls in the presence and absence of DMSO and without compound were carried out to evaluate the effect of DMSO on the activity of ACE and ACE2. […]
Human recombinant ACE and ACE2 were obtained from R&D systems, Minneapolis, Minn., along with their respective fluorogenic substrates (ACE, catalog ID: 929-ZN-10; ACE2, 933-ZN-10; ACE substrate, fluorogenic peptide V, Mca RPPGFSAFK(Dnp)-OH, catalog ID: ES005; ACE2 substrate, fluorogenic peptide VI, Mca-YVADAPK(Dnp)-OH, ES007). Enzymatic activity was measured with a Spectra Max Gemini EM Fluorescence Reader (Molecular Devices) (Huentelman et al., Regul. Pept. 122:61-67 (2004)). […] Samples were read every 15-30 seconds for at least 30 minutes immediately after the addition of fluorogenic peptide substrates at 37° C. […]

[3] = Solubility as observed during assays and formulation; format: physicochemical
From the text: Recombinant ACE and ACE2 were obtained in purified form from R&D Systems, Minneapolis, Minn. (catalog ID: 929-ZN-10 and 933-ZN-10, respectively). Substrates for ACE (fluorogenic peptide V, Mca-RPPGFSAFK(Dnp)-OH, catalog ID: ES005), and for ACE2 (fluorogenic peptide VI, Mca-YVADAPK(Dnp)-OH, catalog ID: ES007) were also obtained from R&D systems. Top scoring molecules were obtained from the National Cancer Institute (NCI) for functional testing. Dry compounds were resuspended in 100% DMSO to prepare 100 mM stock solutions, according to the amount of compound provided by the NCI and its molecular weight. Gentle heating to 60-80 C was carried out to assist their solubilization. Some compounds were further diluted to 50 mM stocks if clearly difficult to dissolve.
XNT was dissolved in saline at low pH (2-2.5) for in vivo studies. This compound was consistently prepared 24-48 hours before delivery in animals. XNT was prepared on a gram scale in six synthetic steps from 5-methoxysalicylic acid and m-chloroiodobenzene through modifications of a published procedure (Archer et al., J. Med. Chem. 26:1240-1246 (1983); Archer et al., J. Med. Chem. 31:254-260 (1988).

[4] = listed as resorcinolnaphthalein

T1 sequence (Q9BYF1 18-740 limits assumed): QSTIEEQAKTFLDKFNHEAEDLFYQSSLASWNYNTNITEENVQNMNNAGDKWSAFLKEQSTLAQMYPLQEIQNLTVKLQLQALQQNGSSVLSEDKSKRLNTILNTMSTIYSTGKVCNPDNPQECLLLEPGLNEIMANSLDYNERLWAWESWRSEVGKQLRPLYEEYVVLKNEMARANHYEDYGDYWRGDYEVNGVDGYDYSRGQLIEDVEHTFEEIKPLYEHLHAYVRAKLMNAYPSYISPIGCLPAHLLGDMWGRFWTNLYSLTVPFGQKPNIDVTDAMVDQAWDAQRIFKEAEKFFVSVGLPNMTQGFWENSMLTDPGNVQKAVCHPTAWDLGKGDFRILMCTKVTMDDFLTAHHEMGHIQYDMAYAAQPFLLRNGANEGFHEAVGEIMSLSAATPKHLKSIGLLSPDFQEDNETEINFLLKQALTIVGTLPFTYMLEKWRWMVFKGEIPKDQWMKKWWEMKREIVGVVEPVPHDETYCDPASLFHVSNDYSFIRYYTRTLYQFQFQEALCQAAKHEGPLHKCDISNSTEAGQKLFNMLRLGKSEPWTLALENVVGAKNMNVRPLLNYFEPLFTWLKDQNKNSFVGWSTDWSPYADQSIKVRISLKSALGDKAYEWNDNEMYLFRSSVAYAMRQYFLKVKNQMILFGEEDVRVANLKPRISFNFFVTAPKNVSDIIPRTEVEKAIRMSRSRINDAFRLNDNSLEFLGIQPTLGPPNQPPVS
T2 sequence (P12821 30-1261 limits assumed): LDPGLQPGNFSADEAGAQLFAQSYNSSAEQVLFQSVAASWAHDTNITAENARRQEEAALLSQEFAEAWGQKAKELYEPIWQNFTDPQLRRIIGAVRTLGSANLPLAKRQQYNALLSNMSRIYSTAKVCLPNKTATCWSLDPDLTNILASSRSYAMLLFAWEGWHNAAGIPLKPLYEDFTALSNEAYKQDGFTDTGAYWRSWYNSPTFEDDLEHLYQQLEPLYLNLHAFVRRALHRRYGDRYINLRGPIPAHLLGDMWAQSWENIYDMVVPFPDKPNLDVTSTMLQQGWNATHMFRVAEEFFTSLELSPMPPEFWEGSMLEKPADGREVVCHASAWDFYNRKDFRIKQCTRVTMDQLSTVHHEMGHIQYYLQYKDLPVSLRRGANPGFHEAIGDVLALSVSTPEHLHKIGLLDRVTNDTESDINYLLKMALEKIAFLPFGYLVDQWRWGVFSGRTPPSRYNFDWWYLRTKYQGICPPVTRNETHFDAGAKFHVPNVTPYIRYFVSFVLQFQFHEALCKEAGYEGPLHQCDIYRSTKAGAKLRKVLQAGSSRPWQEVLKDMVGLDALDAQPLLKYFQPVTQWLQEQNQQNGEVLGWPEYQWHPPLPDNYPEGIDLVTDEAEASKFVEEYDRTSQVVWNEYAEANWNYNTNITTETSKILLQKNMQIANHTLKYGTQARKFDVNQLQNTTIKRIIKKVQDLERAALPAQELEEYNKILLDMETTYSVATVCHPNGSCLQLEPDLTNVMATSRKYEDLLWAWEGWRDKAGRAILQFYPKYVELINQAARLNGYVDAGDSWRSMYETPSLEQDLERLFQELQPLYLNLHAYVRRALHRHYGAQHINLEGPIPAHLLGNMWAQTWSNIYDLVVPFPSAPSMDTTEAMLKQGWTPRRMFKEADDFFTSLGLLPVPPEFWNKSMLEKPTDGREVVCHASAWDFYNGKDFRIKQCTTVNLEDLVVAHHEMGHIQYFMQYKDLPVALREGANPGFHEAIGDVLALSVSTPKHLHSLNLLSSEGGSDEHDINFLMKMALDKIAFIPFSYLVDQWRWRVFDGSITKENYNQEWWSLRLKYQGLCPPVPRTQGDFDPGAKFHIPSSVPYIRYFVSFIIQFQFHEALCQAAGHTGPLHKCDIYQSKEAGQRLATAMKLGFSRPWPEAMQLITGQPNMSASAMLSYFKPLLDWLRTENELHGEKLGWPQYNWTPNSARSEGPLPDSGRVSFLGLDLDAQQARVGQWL

For `O=C1OC2(c3ccc(O)cc3Oc3cc(O)ccc32)c2cccc3cccc1c23` [Compound 6, resorcinalnaphthalein], the “ACE2 activity, dose response” value [1] was “did not show the same dose response”, the ACE2 activity ([1]; 100 μM compound) was “ACE2-specific enhancement” and the “increase of ACE2 activity” value ([1]; 100 μM compound, FIG. 3, 40 minute time course) was “about 2 fold”. The ACE2 activity ([1]; 500 μM compound) was “returned down to control level”, the ACE2 activity ([1]; 20, 50 and 100 μM compound) was “activated ACE2 identically; also recorded: identical curves” and the ACE2 activity ([1]; concentrations higher than 100 μM) was “inhibited ACE2”. For the same compound, the “enhancement of ACE2 enzymatic activity” value ([1]; confirmation assay, 1% DMSO) was 2 fold, the “increase of ACE2 activity” value ([1]; initial functional screening) was “about 2 fold” and the “ACE2 activity, dose response” value [1, 4] was “dose-dependent manner”. For the same compound, the ACE activity [2] was “do not enhance ACE activity”, the ACE activity ([2]; 50 or 100 μM compound) was “did not activate; also recorded: not enhanced” and the ACE activity [2, 4] was “did not significantly affect”. The solubility [3] was “significantly more insoluble”.
